Experimental data published in PMC6533912 (Journal of medicinal chemistry, 2018).

What was measured:
[1] = target: T1, human 5-HT2CR (unedited INI isoform) (Homo sapiens, UniProt P28335); assay: 5-HT-induced Cai2+ release assay in live h5-HT2CR-CHO cells; type: cell-based; settings: for allosteric modulator (PAM/NAM) activity on 5-HT-induced Cai2+ release, in words: 1 nM test compound
T1 sequence (P28335 33-458): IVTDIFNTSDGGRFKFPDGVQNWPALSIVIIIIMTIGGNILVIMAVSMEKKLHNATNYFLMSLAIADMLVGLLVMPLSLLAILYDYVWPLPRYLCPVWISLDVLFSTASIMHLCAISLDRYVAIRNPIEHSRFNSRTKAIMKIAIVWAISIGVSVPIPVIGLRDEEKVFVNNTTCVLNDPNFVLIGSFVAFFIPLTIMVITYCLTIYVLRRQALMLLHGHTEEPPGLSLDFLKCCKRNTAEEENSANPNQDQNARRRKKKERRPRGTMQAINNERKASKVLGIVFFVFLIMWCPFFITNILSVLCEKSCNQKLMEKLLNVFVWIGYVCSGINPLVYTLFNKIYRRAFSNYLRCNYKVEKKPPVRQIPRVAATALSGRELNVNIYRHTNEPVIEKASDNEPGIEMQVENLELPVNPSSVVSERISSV

5-HT1BR = 5-HT1BR (Homo sapiens, UniProt P28222); assay: NIMH PDSP radioligand displacement; settings: read-out: % inhib (10 μm)
male Sprague–Dawley rats [2] = assay: Spontaneous locomotor activity; type: in vivo; settings: rat
human 5-HT2AR [3] = target: T2, human 5-HT2AR (Homo sapiens, UniProt P28223); assay: 5-HT-evoked Cai2+ release assay in live h5-HT2AR-CHO cells; type: cell-based; settings: 1 pM, 1 nM, 1 μM
male Sprague–Dawley rats [4] = assay: Cocaine self-administration cue reactivity test; type: in vivo; settings: 1 mg/kg ip, rat
male Sprague–Dawley rats [5] = assay: WAY163909 vs saline drug discrimination assay; type: in vivo
dopamine receptor D4 = target: T3, dopamine receptor D4 (Homo sapiens, UniProt P21917); assay: NIMH PDSP radioligand displacement; settings: read-out: % inhib (10 μm)
T3 sequence (P21917 1-419): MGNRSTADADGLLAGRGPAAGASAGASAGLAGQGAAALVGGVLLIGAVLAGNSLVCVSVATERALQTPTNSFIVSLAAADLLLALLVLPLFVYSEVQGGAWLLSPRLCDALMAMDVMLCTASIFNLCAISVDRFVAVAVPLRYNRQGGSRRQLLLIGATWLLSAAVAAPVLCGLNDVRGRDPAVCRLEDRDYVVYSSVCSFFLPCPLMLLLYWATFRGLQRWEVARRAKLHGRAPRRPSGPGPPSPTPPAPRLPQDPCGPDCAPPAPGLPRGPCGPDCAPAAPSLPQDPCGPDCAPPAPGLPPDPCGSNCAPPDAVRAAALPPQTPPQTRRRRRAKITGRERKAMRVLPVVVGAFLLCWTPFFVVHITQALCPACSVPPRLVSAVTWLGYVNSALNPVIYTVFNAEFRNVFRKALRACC

[6] = target: norepinephrine transporter (NET) (Homo sapiens, UniProt P23975); assay: NIMH PDSP radioligand displacement; settings: 10 μM
[7] = target: T1, human 5-HT2CR (unedited INI isoform); settings: cited from earlier work
human 5-HT2AR [8] = target: T2, human 5-HT2AR; settings: cited from earlier work

T2 sequence (P28223 whole entry): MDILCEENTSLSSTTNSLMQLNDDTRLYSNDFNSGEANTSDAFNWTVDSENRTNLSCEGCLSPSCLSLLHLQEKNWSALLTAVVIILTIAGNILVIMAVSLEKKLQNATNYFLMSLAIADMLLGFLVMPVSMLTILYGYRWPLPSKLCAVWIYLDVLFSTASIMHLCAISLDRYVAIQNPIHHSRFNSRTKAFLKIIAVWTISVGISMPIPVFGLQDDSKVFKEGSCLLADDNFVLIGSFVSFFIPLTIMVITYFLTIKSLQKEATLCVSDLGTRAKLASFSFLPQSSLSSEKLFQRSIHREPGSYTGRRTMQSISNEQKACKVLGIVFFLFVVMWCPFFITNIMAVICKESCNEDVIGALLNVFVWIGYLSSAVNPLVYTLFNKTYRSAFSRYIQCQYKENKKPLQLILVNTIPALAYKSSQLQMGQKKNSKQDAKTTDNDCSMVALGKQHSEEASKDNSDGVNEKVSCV
norepinephrine transporter (NET), sequence (P23975 whole entry, species assumed, canonical isoform): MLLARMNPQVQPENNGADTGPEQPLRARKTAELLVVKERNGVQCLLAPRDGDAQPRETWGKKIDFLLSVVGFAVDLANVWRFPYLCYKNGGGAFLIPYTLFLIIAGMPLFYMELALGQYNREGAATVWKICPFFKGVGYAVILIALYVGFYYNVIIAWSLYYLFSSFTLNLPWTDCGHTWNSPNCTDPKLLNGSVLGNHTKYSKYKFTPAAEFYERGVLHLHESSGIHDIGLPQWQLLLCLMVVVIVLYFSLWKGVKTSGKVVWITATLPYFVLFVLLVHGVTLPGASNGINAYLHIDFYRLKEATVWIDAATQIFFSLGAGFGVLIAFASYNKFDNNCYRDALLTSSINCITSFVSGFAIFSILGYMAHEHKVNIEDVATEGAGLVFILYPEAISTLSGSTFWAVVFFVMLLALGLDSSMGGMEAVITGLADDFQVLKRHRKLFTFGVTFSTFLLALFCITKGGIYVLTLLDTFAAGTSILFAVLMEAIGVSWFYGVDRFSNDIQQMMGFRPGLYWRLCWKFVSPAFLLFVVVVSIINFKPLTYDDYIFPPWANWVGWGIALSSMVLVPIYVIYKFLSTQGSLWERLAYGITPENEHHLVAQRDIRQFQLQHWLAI
5-HT1BR, sequence (P28222 whole entry): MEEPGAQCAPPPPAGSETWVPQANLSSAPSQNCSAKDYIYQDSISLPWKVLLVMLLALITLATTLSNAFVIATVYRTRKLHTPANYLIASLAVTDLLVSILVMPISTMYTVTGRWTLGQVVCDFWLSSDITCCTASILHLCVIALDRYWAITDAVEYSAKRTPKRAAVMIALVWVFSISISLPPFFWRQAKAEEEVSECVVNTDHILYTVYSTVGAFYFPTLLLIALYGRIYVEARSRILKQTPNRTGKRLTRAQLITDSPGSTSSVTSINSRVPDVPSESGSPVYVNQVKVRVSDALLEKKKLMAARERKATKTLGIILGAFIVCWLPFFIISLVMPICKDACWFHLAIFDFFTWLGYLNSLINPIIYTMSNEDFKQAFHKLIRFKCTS

In the case of `CCCCCCCCCCC[C@@H]1CCN[C@H](C(=O)NC[C@@H](O)CO)C1` (mixture of isomers) [Compound 16a, cis-N-((R)-2,3-Dihydroxypropyl)-4-undecylpiperidine-2-carboxamide], the “allosteric modulator (PAM/NAM) activity on 5-HT-induced Cai2+ release, in words” value (from here on “allosteric modulator (PAM/NAM) activity”) [1] is reported as “lacked appreciable PAM activity”.

With `CCCCCCCCCCC[C@@H]1CCN[C@H](C(=O)NC[C@H](O)CO)C1` (mixture of isomers) [Compound 16b, cis-N-((S)-2,3-Dihydroxypropyl)-4-undecylpiperidine-2-carboxamide] the “allosteric modulator (PAM/NAM) activity” value [1] was “displayed significant PAM activity”.

For `CCCCCCCCCCC[C@@H]1CCN[C@H](C(=O)NCCO)C1` (relative stereo) [Compound 8, cis-N-(2-Hydroxyethyl)-4-undecylpiperidine-2-carboxamide], the “allosteric modulator (PAM/NAM) activity” value [1] was “no significant PAM activity”.

For `CCCCCCCCCCC[C@@H]1CCN[C@H](C(=O)NCC(O)CO)C1` (relative stereo) [Compound 16, cis-4-Undecylpiperidine-2-carboxylic Acid (2,3-Dihydroxypropyl)amide], the inhibition at 10 µM (5-HT1BR) was -18.1%, the ambulations (male Sprague–Dawley rats [2]; 1 mg/kg ip) was “not associated with suppressed ambulations” and the “mean total ambulations in 30 min vs saline” value (male Sprague–Dawley rats [2]; 5 mg/kg ip) was “significantly reduced mean total ambulations”. For the same molecule, the “mean total vertical activity in 30 min vs saline” value (male Sprague–Dawley rats [2]; 5 mg/kg ip) was “significantly reduced mean total vertical activity”, the “change in 5-HT Emax or EC50 at the 5-HT2AR” value (human 5-HT2AR [3]) was “no change in the 5-HT Emax or EC50” and the “previously active lever presses reinforced by the discrete cue complex vs saline” value (male Sprague–Dawley rats [4]; 15 min before cue reactivity session) was “significantly lower”. For the same molecule, the “inactive lever presses vs saline” value (male Sprague–Dawley rats [4]) was “did not significantly alter inactive lever presses”, the “substitution for the WAY163909 stimulus, in words” value (male Sprague–Dawley rats [5]; 0.125–1.0 mg/kg ip, given alone) was “partially substituted for WAY163909” and the inhibition at 10 µM (dopamine receptor D4) was -14.2%. For the same molecule, the “displacement of radioligand binding” value [6] was “did not displace binding”, the “effect on 5-HT potency (leftward shift of 5-HT curve)” value ([1]; 1 pM, 1 nM, 1 μM) was “did not impact 5-HT potency” and the “shift of 5-HT-evoked Cai2+ release concentration-response curve” value ([1]; 1 pM, 1 nM, 1 μM) was “upward shift of 5-HT-evoked Cai^2+ release at multiple concentrations”. For the same molecule, the “allosteric modulator (PAM/NAM) activity” value [1] was “significant PAM activity” and the “intrinsic agonist efficacy to induce Cai2+ release in the absence of 5-HT” value ([1]; 1 nM, compound alone) was “did not stimulate Cai^2+ release”.

For `CCCCCCCCCCC[C@@H]1CCN[C@H](C(=O)N[C@@H]([C@H]2O[C@H](SC)[C@H](O)[C@@H](O)[C@H]2O)[C@H](C)Cl)C1.Cl` [Compound 1], the “shift of the 5-HT-evoked Cai2+ response curve” value ([7]; 1 nM, previous titration studies) is given as “leftward shift of the 5-HT-evoked Cai^2+ response curve”, the “intrinsic agonist activity at the 5-HT2CR” value [7] is given as “no intrinsic agonist activity” and the “intrinsic agonist activity at the 5-HT2AR” value (human 5-HT2AR [8]) is given as “no intrinsic agonist activity”.

For `CCCCCCCCCCC[C@@H]1CCN[C@H](C(=O)O)C1` [Compound 7, (cis-2,4)-4-Undecylpiperidine-2-carboxylic acid], the “allosteric modulator (PAM/NAM) activity” value [1] was “no significant PAM activity”.

For `c1cc2c3c(c1)[C@H]1CCC[C@H]1N3CCNC2` [WAY163909, (7b-R,10a-R)-1,2,3,4,8,9,10,10a-octahydro-7bH-cyclopenta[b][1,4]diazepino[6,7,1hi]indole], the WAY163909-appropriate responding (male Sprague–Dawley rats [5]; 0.5 mg/kg ip, given alone) was about 30%, the “dose predicted to elicit 50% of WAY163909-lever responding (ED50)” value (male Sprague–Dawley rats [5]; ip, rats trained on WAY163909 0.75 mg/kg vs saline, log-probit) was 0.53 mg/kg and the WAY163909-appropriate responding (male Sprague–Dawley rats [5]; training dose 0.75 mg/kg ip) was “Greater than 95%”.
